Measured values taken from patent US11000033B2, “Ketone or oxime compound, and herbicide” (NISSAN CHEMICAL CORPORATION, priority 2014, dated 2021).

What was measured:
Type in all cases: in vivo
[1] = test system: Alopecurus myosuroides; assay: Test Example 4: herbicidal effect by soil treatment (symbol J); settings: application herbicide amount 320 g/ha
How it was run: (§1)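 Seeds were sown in sterilized diluvial soil, covered with about 1.5 cm of soil, and the soil surface was sprayed with a water-diluted emulsion of the compound at a predetermined rate. Plants grew in a greenhouse at 25° C. to 30° C.; effects were scored visually 3 weeks after application.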

[2] = test system: rapeseed; assay: Test Example 5: effect on crop by foliage application, plastic box (symbol g); settings: 320 g/ha, 3 weeks after application
How it was run: (§2)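 In a plastic box 7 cm deep filled with sterilized diluvial soil, seeds of crops and weeds such as Digitaria ciliaris, Avena fatua and Amaranthus retroflexus are sown in spots and covered with about 1.5 cm of soil before greenhouse growth at 25–30° C.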

[3] = test system: Galium spurium; assay: Test Example 4: herbicidal effect by soil treatment (symbol Q); settings: application herbicide amount 320 g/ha
How it was run: as §1

[4] = test system: Setaria viridis; assay: Test Example 4: herbicidal effect by soil treatment (symbol G); settings: application herbicide amount 320 g/ha
How it was run: as §1

[5] = test system: Amaranthus retroflexus; assay: Test Example 5: herbicidal effect by foliage application, plastic box (symbol N); settings: 320 g/ha, 3 weeks after application
How it was run: (§3)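 Seeds were sown in sterilized diluvial soil, covered with about 1.5 cm of soil and grown 14 days in a greenhouse at 25° C. to 30° C. An emulsifiable formulation diluted in water to a set rate was sprayed over foliage, and injury was scored 3 weeks later.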

[6] = test system: Stellaria media; assay: Test Example 4: herbicidal effect by soil treatment (symbol P); settings: application herbicide amount 320 g/ha
How it was run: as §1

[7] = test system: Chenopodium album; assay: Test Example 5: herbicidal effect by foliage application, plastic box (symbol O); settings: 320 g/ha, 3 weeks after application
How it was run: as §3

[8] = test system: Monochoria vaginalis; assay: Test Example 1: herbicidal activity, application before weed generation in submerged conditions (symbol C); settings: application herbicide amount 320 g/ha
How it was run: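 0–5 visual score, 3 wk post-application. Submerged pots, alluvial soil, water 4 cm; seeds sown mixed, rice at 2.5 leaves transplanted. Emulsion diluted to predetermined dose, applied to water surface at sowing. 25–30 °C greenhouse.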

[9] = test system: corn; assay: Test Example 5: effect on crop by foliage application, plastic box (symbol c); settings: 320 g/ha, 3 weeks after application
How it was run: as §2

[10] = test system: Leptochloa chinensis; assay: Test Example 3: herbicidal effect by foliage application, Wagner pot (symbol D); settings: application herbicide amount 320 g/ha
How it was run: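 Steps: fill pot with alluvial soil; add water to 0.1–0.5 cm depth; sow weed and rice seed; grow 14 days at 25–30 °C; spray diluted emulsion over the leaves; rate effect after 3 weeks.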

[11] = test system: Lolium multiflorum Lam.; assay: Test Example 5: herbicidal effect by foliage application, plastic box (symbol K); settings: 320 g/ha, 3 weeks after application
How it was run: as §3

[12] = test system: transplanted rice plant; assay: Test Example 1: effect on crop, application before weed generation in submerged conditions (symbol a); settings: application herbicide amount 320 g/ha
How it was run: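 Alluvial soil pots flooded to 4 cm water, sown with Echinochloa oryzacola, Scirpus juncoides and Monochoria vaginalis, then transplanted with 2.5 leaf stage rice seedlings; pre-emergence application. Greenhouse 25° C. to 30° C.; scored 0–5 by herbicidal ratio 3 weeks after application.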

[13] = test system: Apera spica-venti; assay: Test Example 4: herbicidal effect by soil treatment (symbol L); settings: application herbicide amount 320 g/ha
How it was run: as §1

[14] = test system: Avena fatua; assay: Test Example 4: herbicidal effect by soil treatment (symbol I); settings: application herbicide amount 320 g/ha
How it was run: as §1

[15] = test system: Echinochloa crus-galli var. crus-galli; assay: Test Example 5: herbicidal effect by foliage application, plastic box (symbol H); settings: 320 g/ha, 3 weeks after application
How it was run: as §3

[16] = test system: Stellaria media; assay: Test Example 5: herbicidal effect by foliage application, plastic box (symbol P); settings: 320 g/ha, 3 weeks after application
How it was run: as §3

[17] = test system: Abutilon theophrasti; assay: Test Example 5: herbicidal effect by foliage application, plastic box (symbol M); settings: 320 g/ha, 3 weeks after application
How it was run: as §3

[18] = test system: Veronica persica; assay: Test Example 4: herbicidal effect by soil treatment (symbol R); settings: application herbicide amount 320 g/ha
How it was run: as §1

Row | Structure (SMILES) | J (Alopecurus myosuroides) herbicidal effect grade [1] | g: rapeseed, effect on crop grade [2] | Q (Galium spurium) herbicidal effect grade [3] | G (Setaria viridis) herbicidal effect grade [4] | N: Amaranthus retroflexus, herbicidal effect grade [5] | P (Stellaria media) herbicidal effect grade [6] | O: Chenopodium album, herbicidal effect grade [7] | Herbicidal effect grade, C: Monochoria vaginalis [8] | c: corn, effect on crop grade [9] | herbicidal effect on D (Leptochloa chinensis), grade 0-5 [10] | K: Lolium multiflorum Lam., herbicidal effect grade [11] | Effect grade on crop, a: transplanted rice plant [12] | L (Apera spica-venti) herbicidal effect grade [13] | I (Avena fatua) herbicidal effect grade [14] | H: Echinochloa crus-galli var. crus-galli, herbicidal effect grade [15] | P: Stellaria media, herbicidal effect grade [16] | M: Abutilon theophrasti, herbicidal effect grade [17] | R (Veronica persica) herbicidal effect grade [18]
1 | CC(CC1CC(O)=C(c2c(C)cc(C)cc2C)C1=O)=NOCC(=O)N1CCOCC1 (centres unmarked) [1-025] | 4 (Herbicidal ratio of 70% or higher and lower than 90%) | 4 (Herbicidal ratio of 70% or higher and lower than 90%) | 0 (Herbicidal ratio of 5% or lower (almost no effect)) | 5 (Herbicidal ratio of 90% or more (almost completely withered)) | 0 (Herbicidal ratio of 5% or lower (almost no effect)) | 0 (Herbicidal ratio of 5% or lower (almost no effect)) | 4 (Herbicidal ratio of 70% or higher and lower than 90%) | 0 (Herbicidal ratio of 5% or lower (almost no effect)) | 3 (Herbicidal ratio of 40% or higher and lower than 70%) | 5 (Herbicidal ratio of 90% or more (almost completely withered)) | 5 (Herbicidal ratio of 90% or more (almost completely withered)) | 3 (Herbicidal ratio of 40% or higher and lower than 70%) | 5 (Herbicidal ratio of 90% or more (almost completely withered)) | 3 (Herbicidal ratio of 40% or higher and lower than 70%) | 4 (Herbicidal ratio of 70% or higher and lower than 90%) | 4 (Herbicidal ratio of 70% or higher and lower than 90%) | 1 (Herbicidal ratio of 5% or higher and lower than 20%) | 
2 | CON=C(C)CC1CC(OCC#C[Si](C)(C)C)=C(c2c(C)cc(C)cc2C)C1=O (centres unmarked) [1-031] | 0 (Herbicidal ratio of 5% or lower (almost no effect)) | 3 (Herbicidal ratio of 40% or higher and lower than 70%) | 0 (Herbicidal ratio of 5% or lower (almost no effect)) | 0 (Herbicidal ratio of 5% or lower (almost no effect)) | 0 (Herbicidal ratio of 5% or lower (almost no effect)) | 0 (Herbicidal ratio of 5% or lower (almost no effect)) | 0 (Herbicidal ratio of 5% or lower (almost no effect)) | 2 (Herbicidal ratio of 20% or higher and lower than 40%) | 0 (Herbicidal ratio of 5% or lower (almost no effect)) | 4 (Herbicidal ratio of 70% or higher and lower than 90%) | 4 (Herbicidal ratio of 70% or higher and lower than 90%) | 0 (Herbicidal ratio of 5% or lower (almost no effect)) | 0 (Herbicidal ratio of 5% or lower (almost no effect)) | 0 (Herbicidal ratio of 5% or lower (almost no effect)) | 1 (Herbicidal ratio of 5% or higher and lower than 20%) | 0 (Herbicidal ratio of 5% or lower (almost no effect)) | 0 (Herbicidal ratio of 5% or lower (almost no effect)) | 
3 | CCCCCCCCC(=O)OC1=C(c2c(C)cc(C)cc2C)C(=O)C(CC(C)=NOC)C1 (centres unmarked) [1-033] | 5 (Herbicidal ratio of 90% or more (almost completely withered)) | 4 (Herbicidal ratio of 70% or higher and lower than 90%) | 3 (Herbicidal ratio of 40% or higher and lower than 70%) | 5 (Herbicidal ratio of 90% or more (almost completely withered)) | 4 (Herbicidal ratio of 70% or higher and lower than 90%) | 0 (Herbicidal ratio of 5% or lower (almost no effect)) |  | 1 (Herbicidal ratio of 5% or higher and lower than 20%) | 4 (Herbicidal ratio of 70% or higher and lower than 90%) | 5 (Herbicidal ratio of 90% or more (almost completely withered)) | 5 (Herbicidal ratio of 90% or more (almost completely withered)) | 5 (Herbicidal ratio of 90% or more (almost completely withered)) | 5 (Herbicidal ratio of 90% or more (almost completely withered)) | 4 (Herbicidal ratio of 70% or higher and lower than 90%) | 5 (Herbicidal ratio of 90% or more (almost completely withered)) | 3 (Herbicidal ratio of 40% or higher and lower than 70%) | 4 (Herbicidal ratio of 70% or higher and lower than 90%) | 1 (Herbicidal ratio of 5% or higher and lower than 20%)
4 | CON=C(C)C(c1ccc(F)cc1)C1CC(O)=C(c2c(C)cc(C)cc2C)C1=O (centres unmarked) [1-049] | 0 (Herbicidal ratio of 5% or lower (almost no effect)) | 0 (Herbicidal ratio of 5% or lower (almost no effect)) | 0 (Herbicidal ratio of 5% or lower (almost no effect)) | 0 (Herbicidal ratio of 5% or lower (almost no effect)) | 0 (Herbicidal ratio of 5% or lower (almost no effect)) | 0 (Herbicidal ratio of 5% or lower (almost no effect)) | 0 (Herbicidal ratio of 5% or lower (almost no effect)) | 0 (Herbicidal ratio of 5% or lower (almost no effect)) | 0 (Herbicidal ratio of 5% or lower (almost no effect)) | 0 (Herbicidal ratio of 5% or lower (almost no effect)) | 0 (Herbicidal ratio of 5% or lower (almost no effect)) | 0 (Herbicidal ratio of 5% or lower (almost no effect)) | 0 (Herbicidal ratio of 5% or lower (almost no effect)) | 0 (Herbicidal ratio of 5% or lower (almost no effect)) | 0 (Herbicidal ratio of 5% or lower (almost no effect)) | 0 (Herbicidal ratio of 5% or lower (almost no effect)) | 0 (Herbicidal ratio of 5% or lower (almost no effect)) | 
